From ChEMBL document CHEMBL1145642, “Farnesyl pyrophosphate synthase enantiospecificity with a chiral risedronate analog, [6,7-dihydro-5H-cyclopenta[c]pyridin-7-yl(hydroxy)methylene]bis(phosphonic acid) (NE-10501): Synthetic, structural, and modeling studies” (Bioorg Med Chem Lett, 2008)

Biological target: T1, Farnesyl pyrophosphate synthase (Homo sapiens, UniProt P14324)
T1 sequence (P14324 whole entry): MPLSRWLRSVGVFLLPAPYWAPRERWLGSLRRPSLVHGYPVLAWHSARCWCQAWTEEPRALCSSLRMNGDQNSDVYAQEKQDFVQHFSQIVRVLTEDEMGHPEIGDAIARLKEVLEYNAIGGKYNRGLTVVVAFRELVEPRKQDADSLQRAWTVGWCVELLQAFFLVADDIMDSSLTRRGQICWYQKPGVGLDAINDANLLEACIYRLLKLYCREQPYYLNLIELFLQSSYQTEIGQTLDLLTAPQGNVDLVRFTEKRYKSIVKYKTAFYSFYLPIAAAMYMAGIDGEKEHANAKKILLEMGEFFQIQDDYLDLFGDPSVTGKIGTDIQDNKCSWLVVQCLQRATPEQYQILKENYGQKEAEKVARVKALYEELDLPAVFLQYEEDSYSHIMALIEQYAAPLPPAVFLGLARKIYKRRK

Question: Which IC50 does the source give for `O=P(O)(O)C(O)(C1CCc2ccncc21)P(=O)(O)O` (stereo unspecified) here?
Answer: The IC50 was 630 nM.
